Measured values from US20120041009A1, “PYRIMIDINE COMPOUND AND ITS USE IN PEST CONTROL” (SUMITOMO CHEMICAL COMPANY, LIMITED, priority 2009, published 2012).

Test system: Tetranychus urticae
Experiment: Test Example 2: spray test against Tetranychus urticae on brush bean (Phaseolus vulgaris)
Assay type: in vivo
Conditions: comparative compound, same conditions as in Test Example 2 (500 ppm); day not given
Experimental: The formulation of each of the present compounds (1), (3), (5), (7) to (11), (13), (14), (18), (20), (22), (24), (26), (27), (29), (30) and (33) to (35) obtained in Formulation Example 1 was diluted with water so as to adjust the concentration of the active ingredient to 500 ppm to prepare a test spray solution.
About sixty female imagines of Tetranychus urticae were released on brush bean (Phaseolus vulgaris) in the primary leaf stage, which had been potted in a polyethylene cup for 7 days after the seeding. One day after release of female imagines of Tetranychus urticae, 30 ml (per cup) of the test spray solution was sprayed over the brush bean seedling.
On the 8th and 13th day after spraying, the numbers of survival Tetranychus urticae on the leaf of the brush bean plant were examined, and the control rate was calculated by the following equation.
Control rate=100×{1−(number of survival Tetranychus urticae in treated section)/(number of survival Tetranychus urticae in non-treated section)}

O=c1[nH]c(-c2cncnc2C(F)(F)F)no1 [comparative compound (C)]
control value: less than 30%
